± gives the standard deviation of the averaged measurements.
What was measured:
Assay in all cases: level (log10 ratio to DMSO vehicle control); higher = higher biomarker level / cell amount than vehicle control
[1] = compound: CCOC(=O)CC(=O)C(F)(F)C(F)(F)F [Ethyl pentafluoropropionyl acetate] (in DMSO)
Description: (§1)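 BioMAP Diversity Plus panel of 12 human primary cell co-culture systems (3C, 4H, LPS, SAg, BT, BF4T, BE3C, CASM3C, HDF3CGF, KF3CT, MyoF, Mphg). Compounds were added 1 h before stimulation and left for 24 h (MyoF 48 h; BT 72 h for soluble read-outs or 6 d for IgG). Biomarkers were read by ELISA, cytotoxicity by SRB, PBMC viability and proliferation by Alamar Blue. Each well value was divided by the mean of 8 DMSO control wells on the same plate and log10 transformed; duplicate blinded samples were tested at 4 concentrations.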

[2] = compound: C[C@@H]1C[C@H]2[C@@H]3CCC4=CC(=O)C=C[C@]4(C)[C@@]3(F)[C@@H](O)C[C@]2(C)[C@@]1(O)C(=O)COP(=O)(O)O [Dexamethasone sodium phosphate] (in DMSO)
Description: as §1

Octafluoroadipic acid = compound: O=C(O)C(F)(F)C(F)(F)C(F)(F)C(F)(F)C(=O)O [Octafluoroadipic acid] (in DMSO)
Description: as §1

[3] = compound: O=S(=O)(O)C(F)(F)C(F)(F)OC(F)(F)C(F)(F)F [Perfluoro(2-ethoxyethane)sulfonic acid] (in DMSO)
Description: as §1

[4] = compound: OCC(F)(F)C(F)(F)C(F)(F)C(F)(F)C(F)(F)C(F)(F)CO [1H,1H,8H,8H-Perfluorooctane-1,8-diol] (in DMSO)
Description: as §1

[5] = compound: OCCC(F)(F)C(F)(F)C(F)(F)C(F)(F)F [4:2 Fluorotelomer alcohol] (in DMSO)
Description: as §1

| Test System | level (log10) ([1]; 6700 nM) | level (log10) ([1]; 20000 nM) | level (log10) ([1]; 60000 nM) | level (log10) ([2]; 1500 nM) | level (log10) ([2]; 4400 nM) | level (log10) ([2]; 13000 nM) | level (log10) ([2]; 40000 nM) | level (log10) (Octafluoroadipic acid; 6700 nM) | level (log10) (Octafluoroadipic acid; 20000 nM) | level (log10) (Octafluoroadipic acid; 60000 nM) | level (log10) ([3]; 6700 nM) | level (log10) ([3]; 20000 nM) | level (log10) ([3]; 60000 nM) | level (log10) ([4]; 6700 nM) | level (log10) ([4]; 20000 nM) | level (log10) ([4]; 60000 nM) | level (log10) ([5]; 6700 nM) | level (log10) ([5]; 20000 nM) | level (log10) ([5]; 60000 nM) |
| --- | --- | --- | --- | --- | --- | --- | --- | --- | --- | --- | --- | --- | --- | --- | --- | --- | --- | --- | --- |
| CASM3C:CCL2/MCP-1 | -0.001 ± 0.0028 | 0.003 ± 0.0057 | 0.009 ± 0.027 | -0.0825 ± 0.05 | -0.105 ± 0.037 | -0.113 ± 0.0042 | -0.086 ± 0.047 | -0.0085 ± 0.0092 | -0.0065 ± 0.011 | 0.015 ± 0.038 | -0.003 ± 0.024 | -0.013 ± 0.0071 | -0.0115 ± 0.036 | -0.0175 ± 0.011 | -0.024 ± 0.0057 | 0.0015 ± 0.019 | -0.023 ± 0.038 | -0.0055 ± 0.039 | -0.008 ± 0.05 |
| KF3CT:SRB | -0.002 | 0.0005 ± 0.0035 | -0.004 ± 0.0014 | -0.0025 ± 0.00071 | -0.0035 ± 0.0035 | -0.0005 ± 0.005 | 0.0055 ± 0.012 | -0.0065 ± 0.005 | 0.003 ± 0.013 | 0.001 ± 0.018 | -0.0065 ± 0.00071 | -0.0035 ± 0.0035 | 0.007 ± 0.0099 | -0.003 | -0.004 ± 0.0085 | -0.0085 ± 0.0092 | -0.009 ± 0.0071 | -0.009 ± 0.013 | -0.0025 ± 0.00071 |
| HDF3CGF:CXCL11/I-TAC | -0.0175 ± 0.029 | -0.026 ± 0.037 | -0.0425 ± 0.021 | 0.0425 ± 0.00071 | 0.079 ± 0.082 | 0.0905 ± 0.012 | 0.0355 ± 0.087 | -0.008 ± 0.018 | -0.005 ± 0.0085 | -0.002 ± 0.0042 | 0.0165 ± 0.022 | 0.0055 ± 0.021 | -0.0365 ± 0.063 | 0.0145 ± 0.016 | 0.027 ± 0.017 | 0.017 ± 0.013 | -0.039 ± 0.035 | 0.011 ± 0.0014 | -0.0275 ± 0.029 |
| 3C:CD54/ICAM-1 | -0.0015 ± 0.012 | -0.01 ± 0.016 | 0.0025 ± 0.022 | -0.006 ± 0.04 | -0.019 ± 0.013 | -0.0145 ± 0.022 | -0.0125 ± 0.00071 | -0.007 ± 0.014 | -0.0075 ± 0.018 | -0.0065 ± 0.013 | -0.0105 ± 0.028 | -0.0095 ± 0.023 | -0.01 ± 0.024 | 0.0045 ± 0.0035 | 0.0025 ± 0.019 | 0.0015 ± 0.022 | -0.025 ± 0.018 | -0.018 ± 0.017 | 0.006 ± 0.0042 |
| MyoF:CXCL8/IL-8 | -0.007 ± 0.018 | -0.0025 ± 0.021 | 0.0105 ± 0.029 | -0.0725 ± 0.011 | -0.074 ± 0.013 | -0.1 ± 0.011 | -0.104 ± 0.0057 | -0.0025 ± 0.00071 | 0.002 ± 0.041 | 0.0235 ± 0.046 | 0.0095 ± 0.037 | 0.0225 ± 0.03 | 0.03 ± 0.024 | 0 ± 0.0085 | 0.004 ± 0.025 | 0 ± 0.034 | -0.039 | -0.0475 ± 0.0021 | 0.0435 ± 0.0078 |
| CASM3C:CXCL9/MIG | -0.018 ± 0.03 | -0.0145 ± 0.0064 | -0.0035 ± 0.0092 | 0.0525 ± 0.037 | 0.038 ± 0.0085 | 0.0335 ± 0.0021 | 0.0595 ± 0.025 | -0.0055 ± 0.0078 | -0.01 ± 0.0071 | 0.001 ± 0.021 | -0.0205 ± 0.0064 | -0.0105 ± 0.0035 | 0.0145 ± 0.057 | 0.0035 ± 0.012 | 0.016 ± 0.0028 | 0.0235 ± 0.021 | 0.008 ± 0.0014 | 0.0085 ± 0.029 | 0.0245 ± 0.056 |
| CASM3C:CD87/uPAR | 0.0015 ± 0.028 | -0.013 ± 0.0057 | -0.01 ± 0.017 | 0.0255 ± 0.011 | 0.0045 ± 0.005 | -0.026 ± 0.024 | -0.0215 ± 0.076 | -0.012 ± 0.0057 | -0.014 ± 0.0085 | -0.0015 ± 0.0064 | 0.0025 ± 0.032 | 0.01 ± 0.024 | -0.0165 ± 0.046 | 0.0025 ± 0.0021 | -0.0325 ± 0.0092 | -0.036 ± 0.038 | 0.0005 ± 0.023 | 0.007 ± 0.013 | -0.003 ± 0.021 |
| 3C:CD106/VCAM-1 | -0.0045 ± 0.0064 | -0.008 ± 0.0057 | -0.015 ± 0.0071 | 0.0035 ± 0.043 | -0.009 ± 0.016 | -0.031 ± 0.017 | -0.0265 ± 0.0064 | 0.0005 ± 0.019 | -0.0015 ± 0.0092 | 0.0055 ± 0.00071 | 0.008 ± 0.033 | 0.002 ± 0.0071 | 0 ± 0.0085 | -0.0205 ± 0.0021 | -0.018 ± 0.0042 | -0.007 ± 0.0057 | -0.0205 ± 0.016 | -0.011 ± 0.011 | -0.0095 ± 0.011 |
| CASM3C:Proliferation | -0.049 ± 0.04 | -0.014 ± 0.0085 | -0.0155 ± 0.00071 | 0.084 ± 0.025 | 0.033 ± 0.024 | 0.062 ± 0.025 | 0.059 ± 0.0042 | -0.066 ± 0.0071 | -0.004 ± 0.073 | 0.014 ± 0.051 | -0.0405 ± 0.052 | -0.0015 ± 0.018 | 0.048 ± 0.03 | -0.01 ± 0.0057 | -0.024 ± 0.0099 | -0.0305 ± 0.044 | 0.0185 ± 0.03 | 0.0335 ± 0.044 | 0.0185 ± 0.028 |
| CASM3C:PAI-I | 0.002 ± 0.0057 | 0.0055 ± 0.012 | 0.007 ± 0.0014 | 0.011 ± 0.018 | 0.0125 ± 0.018 | 0.0145 ± 0.015 | 0.015 ± 0.0028 | 0.001 ± 0.0057 | -0.0015 ± 0.00071 | 0.002 ± 0.013 | 0.004 ± 0.0071 | 0.0015 ± 0.012 | 0.015 ± 0.011 | -0.006 ± 0.0099 | -0.006 | 0.012 ± 0.0042 | -0.0085 ± 0.011 | 0.001 ± 0.017 | -0.0015 ± 0.021 |

— the supplement of paper PMC10331698
